Source: US8648045B2, “VDAC1 compositions and methods of use thereof for regulating apoptosis” (Ben Gurion University of the Negev Research and Development …, priority 2005, dated 2014)
Ends that are not written are not given here.

Columns and labels:
[1] = tested on: PBMCs isolated from CLL patients; assay type: cell-based, human
Procedure: Peripheral blood mononuclear cells (PBMCs) were isolated from venous blood of patients with chronic lymphocytic leukemia (CLL) by Ficoll-Paque PLUS (GE Healthcare, Israel) density gradient centrifugation. After informed consent, venous blood (10 ml) was drawn from CLL patients satisfying diagnostic criteria for CLL or from normal adult donors. Blood was collected into heparin tubes and diluted 1:1 with balance solution (composed of two stock solutions, A and B, in 1:9 ratio, respectively. Solution A contained: D-glucose 1%, CaCl2 5×10^−5M, MgCl2 9.8×10^−4M, KCl 5.4×10^−3M, Tris 0.145M, pH 7.6. Solution B contained NaCl 0.14M. The balance solution was prepared freshly every week. The diluted blood sample was subsequently carefully layered on Ficoll-Paque Plus (10 ml of diluted blood: 15 ml Ficoll) in 50 ml conical tubes. Tubes were centrifuged at 400×g (with minimal acceleration and deceleration) for 40 minutes at 18-20° C. The mononuclear cells fine layer was transferred to a new centrifuge tube. Cells were washed 3 times with balance solution and re-suspended in a culture medium appropriate to the application.
(§1) PBMCs (2×10^6 cells/sample) from CLL patients and healthy donors were treated with various concentrations of the peptide Antp-LP4-trp for 90 minutes. Cells were then gently washed once with PBS and stained with propidium iodide (PI) by adding 2.5 μl (1 mg/ml) and immediately analyzed for cell death. The level of cell death, reflected by the percentage of PI-positive cells, was determined by a flow cytometry analysis.
(§2) Preipheral blood mononuclear cells (PMBC) isolated from pateints having chronic lymphocytic leukemia (CLL) and MEC-1 cell lines (human chronic B-cell leukemia) were incubated for 90 min with Peptide N-ANTP (SEQ ID NO:73) at concentrations of 10-40 μM. Cell death was measured by PI staning and FACS analysis.
In ex vivo experiments, peripheral blood mononuclear cells (PBMCs) isolated from healthy individuals or CLL patients were incubated for 90 min with the indicated concentration of the ANTP-LP4-trp peptide. Cell death was assayed by PI staining and FACS analysis (healthy donors, n=34; CLL donors, n=39).

MEC-1 cell line = assay type: cell-based, human
Procedure: as §1, §2

MOLT-4 = assay type: cell-based, human
Procedure: (§3) To determine apoptosis, cells were subjected to staining with 100 μg/ml acridine orange (AcOr) and 100 μg/ml ethidium bromide (EtBr) in PBS. Cells were centrifuged at 1500×g for 5 min at room temperature and resuspended in 25 μl complete medium, to which 2 μl of an AcOr/EtBr solution were added. The cells were then visualized by fluorescence microscopy (Olympus IX51) and images were recorded with an Olympus DP70 camera, using a SWB filter. In each independent experiment, in which early and late apoptotic cells were counted, approximately 250 cells were counted for each treatment.
(§4) The effect of the peptides N-ANTP (having the amino acid sequence of SEQ ID NO:73) and ANTP-LP4-trp (having the amino acid sequence of SEQ ID NO:15) on apoptotoc cell death was examined with cancer cells of various trypes. Table 6 below summarizes the cell line examined and concentration of each pepetide that gave 50% apoptotic cell death (IC50, μM).
(§5) All cells were grown in DMEM accept PC3, D-U145, Molt-4, Jurkat, Mec-1, U937 grown in RPMI medium and HUH7 grown in F12/DMEM medium.

Mec-1 = assay type: cell-based, human
Procedure: as §3, §4, §5

Panc-1 = assay type: cell-based, human
Procedure: as §3, §4, §5

T-Rex = assay type: cell-based, human
Procedure: as §3, §4, §5

U87 = assay type: cell-based, human
Procedure: as §3, §4, §5

U937 = assay type: cell-based, human
Procedure: as §3, §4, §5

A375 = assay type: cell-based
Procedure: as §3, §4, §5

A549 = assay type: cell-based
Procedure: as §3, §4, §5

AsPC1 = assay type: cell-based
Procedure: as §3, §4, §5

H358 = assay type: cell-based
Procedure: as §3, §4, §5

HUH7 = assay type: cell-based
Procedure: as §3, §4, §5

Hep-G2 = assay type: cell-based
Procedure: as §3, §4, §5

JURKAT = assay type: cell-based
Procedure: as §3, §4, §5

K562 = assay type: cell-based
Procedure: as §3, §4, §5

MCF7 = assay type: cell-based
Procedure: as §3, §4, §5

MDA-MB-231 = assay type: cell-based
Procedure: as §3, §4, §5

SKOV-3 = assay type: cell-based
Procedure: as §3, §4, §5

T3M4 = assay type: cell-based
Procedure: as §3, §4, §5

THP-1 = assay type: cell-based
Procedure: as §3, §4, §5

HeLa = tested on: HeLa
Procedure: as §3
The effect of the peptides N-ANTP (having the amino acid sequence of SEQ ID NO:73) and ANTP-LP4-trp (having the amino acid sequence of SEQ ID NO:15) on apoptotoc cell death was examined with cancer cells of various trypes.
as §5

[2] = tested on: PBMCs isolated from healthy donors; test: Cell death, PI staining and FACS; assay type: cell-based, human; conditions: 90 min, n=34
Procedure: Peripheral blood mononuclear cells (PBMCs) were isolated from venous blood of patients with chronic lymphocytic leukemia (CLL) by Ficoll-Paque PLUS (GE Healthcare, Israel) density gradient centrifugation. After informed consent, venous blood (10 ml) was drawn from CLL patients satisfying diagnostic criteria for CLL or from normal adult donors. […]
as §1, with “analysis. […]” for “analysis.”

[3] = tested on: U937, MOLT4 and MEC-1 cells; test: Cancer cell death by L- or D-amino acid peptide; assay type: cell-based, human; conditions: average of two experiments
Excerpt: The results are average of two experiments

PBMCs = assay type: cell-based, human
Procedure: as §3, §4, §5

PC-3 = test: Apoptosis induction by peptides, IC50; assay type: cell-based; conditions: PC-3, Prostate adenocarcinoma, Mut-P53, Androg↑
Procedure: as §3, §4, §5

[4] = assay type: physicochemical
Procedure: The peptides N-ANTP (C-terminus), ANTP-LP4-trp, TAT-LP4-trp and Tf-LP4-trp were synthesized by GL Biochem (Shanghai, China). The N-terminal peptide was water-soluble, while the other peptides were dissolved in DMSO. The concentration of DMSO in control and peptide-containing samples was up to 4%.

Row | Compound | IC50 [1] [µM] | IC50 (MEC-1 cell line) [µM] | IC50 (MOLT-4) [µM] | IC50 (Mec-1) [µM] | IC50 (Panc-1) [µM] | IC50 (T-Rex) [µM] | IC50 (U87) [µM] | IC50 (U937) [µM] | IC50 (A375) [µM] | IC50 (A549) [µM] | IC50 (AsPC1) [µM] | IC50 (H358) [µM] | IC50 (HUH7) [µM] | IC50 (Hep-G2) [µM] | IC50 (JURKAT) [µM] | IC50 (K562) [µM] | IC50 (MCF7) [µM] | IC50 (MDA-MB-231) [µM] | IC50 (SKOV-3) [µM] | IC50 (T3M4) [µM] | also measured
1 | CC[C@H](C)[C@H](NC(=O)[C@H](CCCCN)NC(=O)[C@@H](NC(=O)[C@H](CCC(N)=O)NC(=O)[C@H](CCCNC(=N)N)NC(=O)[C@@H](N)CCSC)[C@@H](C)CC)C(=O)N[C@@H](Cc1c[nH]c2ccccc12)C(=O)N[C@@H](Cc1ccccc1)C(=O)N[C@@H](CCC(N)=O)C(=O)N[C@@H](CC(N)=O)C(=O)N[C@@H](CCCNC(=N)N)C(=O)N[C@@H](CCCNC(=N)N)C(=O)N[C@@H](CCSC)C(=O)N[C@@H](CCCCN)C(=O)N[C@@H](Cc1c[nH]c2ccccc12)C(=O)N[C@@H](CCCCN)C(=O)N[C@@H](CCCCN)C(=O)N[C@@H](CO)C(=O)N[C@@H](Cc1c[nH]c2ccccc12)C(=O)N[C@H](C(=O)N[C@@H](Cc1c[nH]c2ccccc12)C(=O)N[C@@H](CCC(=O)O)C(=O)N[C@@H](CCCCN)C(=O)N[C@@H](CCCCN)C(=O)N[C@@H](CC(C)C)C(=O)N[C@@H](CCC(=O)O)C(=O)N[C@H](C(=O)N[C@@H](C)C(=O)N[C@H](C(=O)N[C@@H](CC(N)=O)C(=O)N[C@@H](CC(C)C)C(=O)N[C@@H](C)C(=O)N[C@@H](Cc1c[nH]c2ccccc12)C(=O)N[C@H](C(=O)N[C@@H](C)C(=O)NCC(=O)N[C@@H](CC(N)=O)C(=O)N[C@@H](CO)C(=O)N[C@@H](CC(N)=O)C(=O)N[C@@H](CCCCN)C(=O)N[C@@H](Cc1c[nH]c2ccccc12)C(=O)N[C@H](C(=O)N[C@@H](Cc1c[nH]c2ccccc12)C(=O)N[C@@H](CCCCN)C(=O)O)[C@@H](C)O)[C@@H](C)O)C(C)C)[C@@H](C)O)[C@@H](C)O [ANTP-LP4-trp] | 0.2 to 0.25 | < 2 | 0.76 ± 0.2 | 0.53 ± 0.1 | 6.4 ± 0.6 | 6.5 ± 0.9 | 1.4 ± 0.5 | 0.28 ± 0.1 | 6.4 ± 0.6 | 1.5 ± 0.2 | 2.7 ± 1.7 | 1.5 ± 0.5 | 0.6 ± 0.3 | 1.6 ± 0.6 | 0.23 ± 0.1 | 0.26 ± 0.1 | 1.9 ± 0.04 | 1.6 ± 0.6 | 1 ± 0.2 | 0.5 ± 0.2 | correlation between relative amount of cancer cells (CD19+/CD5+) and peptide-induced cell death ([1]; 0.375 μM): tight correlation; cell death of CLL-derived PBMCs ([1]; 90 min, CLL donors, n=39): highly effective in inducing cancer cell death; IC50 (THP-1): 0.3 ± 0.1 µM; IC50 (HeLa): 0.9 ± 0.03 µM; effect on PBMCs isolated from healthy donors [2]: marginal; cell-death induction, L- versus D-amino acid peptide [3]: irrespective to the D/L configuration
2 | MAVPPTYADLGKSARDVFTKGYGFGLMRQIKIWFQNRRMKWKK [N-ANTP] | 3 to 4 | 3 to 4 | 1.1 ± 0.3 | 0.93 ± 0.1 | 6.2 ± 0.6 | 5.6 ± 0.9 | 1.4 ± 0.6 | 0.58 ± 0.2 | 2.8 ± 0.4 | 2.7 ± 0.5 | 6.1 ± 0.1 | 2.7 ± 0.2 | 1.3 ± 0.3 | 3.6 ± 1.3 | 0.35 ± 0.5 | 0.6 ± 0.4 | 2.5 ± 0.6 | 1.5 ± 0.3 | 2 ± 0.8 | 1.3 ± 0.4 | IC50 (PBMCs): 10.1 ± 1.2 µM; IC50 (THP-1): 0.53 ± 0.03 µM; IC50 (HeLa): 2.7 ± 0.8 µM; IC50 (PC-3): 0.4 ± 0.1 µM; solubility [4]: water-soluble
